Measurements published in US11878970B2, “Allosteric chromenone inhibitors of phosphoinositide 3-kinase (PI3K) for the treatment of disease” (Petra Pharma Corporation, priority 2021, dated 2024).

Key:
[1] = target: T1, PI3K-α (PIK3CA) H1047R mutant, p110α/p85α complex (Homo sapiens, UniProt P42336, H1047R); assay: PI3K-alpha kinase (PIK3CA) biochemical activity, ADP-Glo, H1047R mutant; settings: Soy PI lipid substrate
T1 construct: Recombinant, catalytically active human full length PIK3KA Wild-type and H1047R mutant; 6×His (N); purchased EMD Millipore Sigma 14-792M
T1 sequence (P42336 whole entry H1047R): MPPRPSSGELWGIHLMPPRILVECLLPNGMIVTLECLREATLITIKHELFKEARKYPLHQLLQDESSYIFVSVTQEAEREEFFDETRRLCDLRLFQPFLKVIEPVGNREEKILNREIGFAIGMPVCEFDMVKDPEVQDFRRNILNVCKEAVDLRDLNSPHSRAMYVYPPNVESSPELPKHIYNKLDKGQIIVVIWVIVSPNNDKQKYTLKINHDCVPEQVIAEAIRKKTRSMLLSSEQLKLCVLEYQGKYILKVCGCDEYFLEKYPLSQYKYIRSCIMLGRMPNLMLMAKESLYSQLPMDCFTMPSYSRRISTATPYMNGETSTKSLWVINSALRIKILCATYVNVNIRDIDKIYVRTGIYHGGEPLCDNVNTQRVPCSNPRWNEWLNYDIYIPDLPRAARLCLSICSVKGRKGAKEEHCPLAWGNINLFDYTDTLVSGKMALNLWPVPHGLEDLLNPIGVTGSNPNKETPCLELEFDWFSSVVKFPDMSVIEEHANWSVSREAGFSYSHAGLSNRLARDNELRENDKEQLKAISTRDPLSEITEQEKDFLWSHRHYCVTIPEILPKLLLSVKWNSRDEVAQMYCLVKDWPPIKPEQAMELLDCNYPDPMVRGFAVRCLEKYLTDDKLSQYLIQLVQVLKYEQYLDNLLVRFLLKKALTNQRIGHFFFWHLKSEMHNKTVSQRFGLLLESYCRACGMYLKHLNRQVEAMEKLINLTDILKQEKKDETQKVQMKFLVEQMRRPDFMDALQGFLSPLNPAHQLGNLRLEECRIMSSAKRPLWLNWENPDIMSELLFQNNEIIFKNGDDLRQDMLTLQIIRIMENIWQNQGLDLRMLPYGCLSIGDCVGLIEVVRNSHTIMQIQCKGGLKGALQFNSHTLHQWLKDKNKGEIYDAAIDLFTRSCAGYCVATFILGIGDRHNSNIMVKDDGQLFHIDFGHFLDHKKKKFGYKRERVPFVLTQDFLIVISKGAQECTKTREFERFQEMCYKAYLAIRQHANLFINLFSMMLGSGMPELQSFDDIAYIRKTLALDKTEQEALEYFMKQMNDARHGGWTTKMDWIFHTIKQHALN
T1 sequence (P27986 whole entry partner): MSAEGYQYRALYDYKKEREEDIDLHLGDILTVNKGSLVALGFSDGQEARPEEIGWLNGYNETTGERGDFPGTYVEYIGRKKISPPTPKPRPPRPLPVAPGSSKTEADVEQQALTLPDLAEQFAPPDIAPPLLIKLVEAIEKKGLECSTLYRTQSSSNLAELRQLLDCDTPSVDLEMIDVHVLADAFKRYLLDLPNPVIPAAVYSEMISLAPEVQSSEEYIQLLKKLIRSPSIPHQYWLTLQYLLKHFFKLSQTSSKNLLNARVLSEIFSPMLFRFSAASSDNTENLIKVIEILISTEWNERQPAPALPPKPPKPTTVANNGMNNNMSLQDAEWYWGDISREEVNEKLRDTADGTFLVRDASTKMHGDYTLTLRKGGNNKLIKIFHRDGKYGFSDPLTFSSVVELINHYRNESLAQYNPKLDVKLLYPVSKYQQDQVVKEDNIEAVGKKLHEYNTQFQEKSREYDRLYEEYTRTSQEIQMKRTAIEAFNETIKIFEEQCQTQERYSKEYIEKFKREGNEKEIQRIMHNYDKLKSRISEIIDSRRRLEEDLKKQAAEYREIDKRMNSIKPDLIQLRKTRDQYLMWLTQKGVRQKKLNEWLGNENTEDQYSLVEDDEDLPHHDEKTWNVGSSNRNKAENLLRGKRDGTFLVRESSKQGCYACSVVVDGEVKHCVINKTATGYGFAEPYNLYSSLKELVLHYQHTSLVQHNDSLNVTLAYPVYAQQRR
Method in brief: (§1)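 ADP formation measured by ADP-Glo luminescence after reaction at 27 °C to about 10% ATP turnover, using 20 uM ATP, 50 uM PIP2diC8 or soy PI lipid, HEPES pH 7.4 with MgCl2. Enzyme (1-5 nM WT or H1047R p110α/p85α) and compound preincubated 1 h first; 10-point 1:3 curves fitted four-parameter for IC50.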

[2] = target: T2, PI3K-α (PIK3CA) wild-type (WT), p110α/p85α complex (Homo sapiens, UniProt P42336); assay: PI3K-alpha kinase (PIK3CA) biochemical activity, ADP-Glo, wild-type; settings: Soy PI lipid substrate
T2 construct: Recombinant, catalytically active human full length PIK3KA Wild-type and H1047R mutant; 6×His (N); purchased EMD Millipore Sigma 14-602M
Method in brief: as §1

Compound | IC50 [1] | IC50 [2]
Cc1cc(C(C)Nc2ccc(Cl)c(F)c2C(=O)O)c2oc(-c3c(C)nc4ccccn34)cc(=O)c2c1 (single isomer, unassigned) [Example 182, 3-Chloro-2-fluoro-6-[1-[6-methyl-2-(2-methylimidazo[1,2-a]pyridin-3-yl)-4-oxo-chromen-8-yl]ethylamino]benzoic acid] | < 500 nM | 1000 to 5000 nM
Cc1cn2cc(-c3oc4c(C(C)Nc5ccccc5C(=O)O)cc(F)cc4c(=O)c3C)ccc2n1 (single isomer, unassigned) [Example 56, 2-[1-[6-Fluoro-3-methyl-2-(2-methylimidazo[1,2-a]pyridin-6-yl)-4-oxo-chromen-8-yl]ethylamino]benzoic acid] | > 10000 nM | > 10000 nM
Cc1cc(C(C)Nc2ccccc2C(=O)O)c2oc(-n3ncc4cc(F)ccc43)cc(=O)c2c1 (single isomer, unassigned) [Example 89, 2-[1-[2-(5-Fluoroindazol-1-yl)-6-methyl-4-oxo-chromen-8-yl]ethylamino]benzoic acid] | < 500 nM | 1000 to 5000 nM
Cc1cc(C(C)Nc2ccc(Cl)nc2C(=O)O)c2oc(-c3ccc4nc(C)cn4c3)cc(=O)c2c1 (single isomer, unassigned) [Example 179, 6-Chloro-3-[1-[6-methyl-2-(2-methylimidazo[1,2-a]pyridin-6-yl)-4-oxo-chromen-8-yl]ethylamino]pyridine-2-carboxylic acid] | 500 to 1000 nM | 5000 to 10000 nM
Cc1cc(C(C)Nc2ccccc2C(=O)O)c2oc(-c3cnc4sc(C)nc4c3)cc(=O)c2c1 (single isomer, unassigned) [Example 81, 2-[1-[6-Methyl-2-(2-methylthiazolo[5,4-b]pyridin-6-yl)-4-oxo-chromen-8-yl]ethylamino]benzoic acid] | < 500 nM | 1000 to 5000 nM
Cc1cc(C(C)Nc2ccccc2C(=O)O)c2oc(-c3nn(C)c4ccccc34)c(C)c(=O)c2c1 (single isomer, unassigned) [Example 146, 2-[1-[3,6-Dimethyl-2-(1-methylindazol-3-yl)-4-oxo-chromen-8-yl]ethylamino]benzoic acid] | < 500 nM | 500 to 1000 nM
Cc1cc(C(C)Nc2cccc(F)c2C(=O)O)c2oc(-c3ccc4nn(C)cc4c3)cc(=O)c2c1 (stereo not drawn) [Example 103, 2-Fluoro-6-[1-[6-methyl-2-(2-methylindazol-5-yl)-4-oxo-chromen-8-yl]ethylamino]benzoic acid] | < 500 nM | 1000 to 5000 nM
Cc1cc(C(C)Nc2ccccc2C(=O)O)c2oc(-c3cn(C)c4ccccc34)c(C)c(=O)c2c1 (single isomer, unassigned) [Example 140, 2-[1-[3,6-Dimethyl-2-(1-methylindol-3-yl)-4-oxo-chromen-8-yl]ethylamino]benzoic acid] | < 500 nM | 1000 to 5000 nM
Cc1cc(C(C)Nc2ccccc2C(=O)O)c2oc(-c3ccc4cn[nH]c4n3)cc(=O)c2c1 (single isomer, unassigned) [Example 121, 2-[1-[6-Methyl-4-oxo-2-(1H-pyrazolo[3,4-b]pyridin-6-yl)chromen-8-yl]ethylamino]benzoic acid] | < 500 nM | 1000 to 5000 nM
Cc1cc(C(C)Nc2ccc(Cl)nc2C(=O)O)c2oc(-c3nn(C)c4ccccc34)cc(=O)c2c1 (single isomer, unassigned) [Example 177, 6-Chloro-3-[1-[6-methyl-2-(1-methylindazol-3-yl)-4-oxo-chromen-8-yl]ethylamino]pyridine-2-carboxylic acid] | < 500 nM | < 500 nM
Cc1cc(C(C)Nc2ccccc2C(=O)O)c2oc(-c3cnn4ccccc34)cc(=O)c2c1 (single isomer, unassigned) [Example 29, 2-[1-(6-Methyl-4-oxo-2-pyrazolo[1,5-a]pyridin-3-yl-chromen-8-yl)ethylamino]benzoic acid] | < 500 nM | 5000 to 10000 nM
Cc1cc(C(C)Nc2ccccc2C(=O)O)c2oc(-c3ccc4cc(C)[nH]c4n3)cc(=O)c2c1 (single isomer, unassigned) [Example 20, 2-[1-[6-Methyl-2-(2-methyl-1H-pyrrolo[2,3-b]pyridin-6-yl)-4-oxo-chromen-8-yl]ethylamino]benzoic acid] | < 500 nM | 1000 to 5000 nM
Cc1cc(C(C)Nc2ccccc2C(=O)O)c2oc(-n3cnc4ccccc43)cc(=O)c2c1 (single isomer, unassigned) [Example 84, 2-[1-[2-(Benzimidazol-1-yl)-6-methyl-4-oxo-chromen-8-yl]ethylamino]benzoic acid] | < 500 nM | 5000 to 10000 nM
Cc1cc(C(C)Nc2ccc(C)nc2C(=O)O)c2oc(-c3ccc4nn(C)cc4c3)c(C)c(=O)c2c1 (single isomer, unassigned) [Example 175, 3-[1-[3,6-Dimethyl-2-(2-methylindazol-5-yl)-4-oxo-chromen-8-yl]ethylamino]-6-methyl-pyridine-2-carboxylic acid] | < 500 nM | 500 to 1000 nM
Cc1cc(-c2cc(=O)c3cc(C(F)(F)F)cc(C(C)Nc4ccc(Cl)nc4C(=O)O)c3o2)cc2cn(C)nc12 (stereo not drawn) [Example 174, 6-Chloro-3-[1-[2-(2,7-dimethylindazol-5-yl)-4-oxo-6-(trifluoromethyl)chromen-8-yl]ethylamino]pyridine-2-carboxylic acid] | < 500 nM | > 10000 nM
Cc1cc([C@@H](C)Nc2ccc(C)nc2C(=O)O)c2oc(-c3ccc4nn(C)cc4c3)c(C)c(=O)c2c1 [Example 200, 3-[[(1R)-1-[3,6-Dimethyl-2-(2-methylindazol-5-yl)-4-oxo-chromen-8-yl]ethyl]amino]-6-methyl-pyridine-2-carboxylic acid] | < 500 nM | 500 to 1000 nM
Cc1cc(C(C)Nc2ccccc2C(=O)O)c2oc(-c3nn(C)c4ccccc34)cc(=O)c2c1 (single isomer, unassigned) [Example 23, 2-[1-[6-Methyl-2-(1-methylindazol-3-yl)-4-oxo-chromen-8-yl]ethylamino]benzoic acid] | < 500 nM | 500 to 1000 nM
Cc1cc(C(C)Nc2ccccc2C(=O)O)c2oc(-c3ccc4nc(C(F)(F)F)cn4c3)c(C)c(=O)c2c1 (single isomer, unassigned) [Example 186, 2-[1-[3,6-Dimethyl-4-oxo-2-[2-(trifluoromethyl)imidazo[1,2-a]pyridin-6-yl]chromen-8-yl]ethylamino]benzoic acid] | < 500 nM | 1000 to 5000 nM
Cc1cc(C(C)Nc2ccc(F)c(F)c2C(=O)O)c2oc(-c3ccc4nc(C)cn4n3)cc(=O)c2c1 (stereo not drawn) [Example 94, 2,3-Difluoro-6-[1-[6-methyl-2-(2-methylimidazo[1,2-b]pyridazin-6-yl)-4-oxo-chromen-8-yl]ethylamino]benzoic acid] | 1000 to 5000 nM | > 10000 nM
Cc1cc(C(C)Nc2ccccc2C(=O)O)c2oc(-c3ccc4cncnc4c3)cc(=O)c2c1 (single isomer, unassigned) [Example 114, 2-[1-(6-Methyl-4-oxo-2-quinazolin-7-yl-chromen-8-yl)ethylamino]benzoic acid] | > 10000 nM | > 10000 nM
Cc1cc(C(C)Nc2ccccc2C(=O)O)c2oc(-c3cn(C)c4ccccc34)cc(=O)c2c1 (single isomer, unassigned) [Example 143, 2-[1-[6-Methyl-2-(1-methylindol-3-yl)-4-oxo-chromen-8-yl]ethylamino]benzoic acid] | < 500 nM | 500 to 1000 nM
